Test results reported in patent publication US20130338190A1, “PHARMACEUTICALLY ACCEPTABLE SALT OF (E)-N-[4-[[3-CHLORO-4-(2-PYRIDYLMETHOXY)PHENYL]AMINO]-3-CYANO-7-ETHOXY-6-QUINOLYL]-3-[(2R)-1-METHYLPYRROLIDIN-2-YL]PROP-2-ENAMIDE, PREPARATION METHOD THEREOF, AND MEDICAL USE THEREOF” (priority 2011, published 2013).
Values after ≈ are worked out from the molar mass of the structure shown. Where two headings read alike, the source gives them in different places.

How the values were obtained:
[1] = Solubility assay; assay type: physicochemical
Protocol: According to the conventional solubility measurement, the solubility of a compound of formula (I) and salts thereof was determined in three different systems: water, physiological saline and methanol.

[2] = Pharmacokinetics assay in rats (LC/MS/MS of plasma); assay type: in vivo, Sprague Dawley (SD) rats; details: rat; for Vd/F: read-out: Vz/F
Protocol: The rats were used as test animals. The compound of formula (I) and other salts thereof were administrated intragastrically, and a maleate salt of the compound of formula (I) was injected into the tail vein to determine the drug concentration in plasma at different time points by an LC/MS/MS method. The pharmacokinetic behavior, characteristics and the oral absolute bioavailability of the present compounds were studied and evaluated in rats. […] 28 healthy adult Sprague Dawley (SD) rats, half male and half female, were purchased from SINO-BRITSH SIPPR/BK LAB. ANIMAL LTD., CO, License number: SCXK (Shanghai) 2008-0016, and divided into 7 groups (4 rats in each group). The intravenous injection group: a suitable amount of compounds was weighed, dissolved in DMSO and diluted with normal saline to the final volume. […] healthy adult SD rats, half male and half female, were divided into 7 groups (4 rats in each group). […] For the intravenous injection group, blood samples (0.2 mL) were taken from orbital sinus before administration and at 2 min, 15 min, 30 min, 1.0 […] and 36.0 h after administration, stored in heparinized tubes and centrifuged for 10 minutes at 3,500 rpm to separate blood plasma. The plasma samples were stored at -20° C. For the intragastrical administration group, blood samples were taken before administration and at 0.5, 1.0, 2.0, 3.0, 4.0, 6.0, 8.0, 12.0, 24.0 and 36.0 hours after administration. The method to treat the samples was the same as with the intravenous injection group. The rats were fed 2 hours after administration.

[3] = biological target: HER-2 kinase (Homo sapiens, UniProt P04626); assay: HER-2 kinase activity assay (time-resolved fluorescence); assay type: biochemical; details: table of the HER-2 kinase activity assay; human-derived recombinant HER-2 kinase, 20 μM ATP, 25° C., 45 minutes; read-out: IC50 (HER-2/SK-BR-3)
Chain of HER-2 kinase (P04626 23-1255): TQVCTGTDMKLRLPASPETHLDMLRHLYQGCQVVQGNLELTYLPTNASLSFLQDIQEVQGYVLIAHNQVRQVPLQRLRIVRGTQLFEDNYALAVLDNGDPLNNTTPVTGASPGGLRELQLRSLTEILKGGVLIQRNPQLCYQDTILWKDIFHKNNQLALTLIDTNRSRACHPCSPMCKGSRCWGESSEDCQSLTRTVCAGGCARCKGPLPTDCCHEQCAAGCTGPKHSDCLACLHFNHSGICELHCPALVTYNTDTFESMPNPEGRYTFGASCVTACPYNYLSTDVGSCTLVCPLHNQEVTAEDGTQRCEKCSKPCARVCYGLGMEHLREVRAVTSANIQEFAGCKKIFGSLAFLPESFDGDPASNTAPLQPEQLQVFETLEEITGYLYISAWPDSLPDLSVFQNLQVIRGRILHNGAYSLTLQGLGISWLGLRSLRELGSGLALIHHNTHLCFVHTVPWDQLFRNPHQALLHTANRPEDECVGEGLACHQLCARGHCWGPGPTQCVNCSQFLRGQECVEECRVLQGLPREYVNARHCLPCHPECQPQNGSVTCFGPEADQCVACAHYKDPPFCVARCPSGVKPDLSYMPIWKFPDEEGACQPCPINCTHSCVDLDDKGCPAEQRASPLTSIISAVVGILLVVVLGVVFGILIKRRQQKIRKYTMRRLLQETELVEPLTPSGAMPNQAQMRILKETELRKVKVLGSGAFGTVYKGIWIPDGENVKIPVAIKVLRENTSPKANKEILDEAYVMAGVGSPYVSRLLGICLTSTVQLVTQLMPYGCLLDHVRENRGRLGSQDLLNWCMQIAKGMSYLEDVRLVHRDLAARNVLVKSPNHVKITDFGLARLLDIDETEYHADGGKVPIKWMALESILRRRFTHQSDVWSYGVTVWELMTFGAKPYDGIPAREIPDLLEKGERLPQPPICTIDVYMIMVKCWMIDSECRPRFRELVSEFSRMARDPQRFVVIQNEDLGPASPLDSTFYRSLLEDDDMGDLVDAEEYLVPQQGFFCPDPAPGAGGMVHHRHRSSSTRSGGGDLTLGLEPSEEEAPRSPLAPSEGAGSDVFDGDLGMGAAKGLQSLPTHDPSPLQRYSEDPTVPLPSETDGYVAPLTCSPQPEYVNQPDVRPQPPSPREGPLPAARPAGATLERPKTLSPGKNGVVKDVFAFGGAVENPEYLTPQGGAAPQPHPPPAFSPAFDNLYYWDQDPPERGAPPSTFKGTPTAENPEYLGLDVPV
Protocol: The in vitro HER-2 kinase activity was tested by the following assay.
The following assay was used to determine the activity of the compounds of the present invention for inhibiting HER-2 kinase. The half maximal inhibitory concentration IC50 (the concentration of the test compound showing 50% inhibition of the enzyme activity) of each compound was determined by incubating several different concentrations of the test compounds with a specific enzyme and substrate. […] The HER-2 kinase activity was determined by using a time-resolved fluorescence method.

[4] = Solubility assay; assay type: physicochemical; details: for solubility: 0.1 M hydrochloric acid, simulated gastric fluid
[5] = test system: human carcinoma SK-BR-3 cells, which have high expression of HER-2; assay: HER-2 cell activity assay (SRB, 96 hours); assay type: cell-based
Excerpt: The following in vitro assay was to determine the activity of the compounds of the present invention for inhibiting the proliferation of human carcinoma SK-BR-3 cells, which have high expression of HER-2.
The following in vitro assay was to determine the activity of the test compounds for inhibiting the angiogenesis and proliferation of cancer cells, which have high expression of HER-2. The activity is represented by the IC50 value. The general procedure of the assay was as follows: the cancer cells line SK-BR-3 highly expressing HER-2 was chosen and the cells were seeded in a 96-well cell culture plate at a suitable density. The cells then were incubated in a carbon dioxide incubator until they reached 60% confluence. Then, the cell culture medium was replaced by fresh medium with the test compounds at various concentrations (6 to 7 concentrations). The cells were put back in the incubator and cultured continuously for 96 hours. The activity of the test compounds for inhibiting the cell proliferation was determined by using a Sulforhodamine B (SRB) method. IC50 values of test cells were calculated by the rate of inhibition at various concentrations of the test compounds.

[6] = test system: human epidermoid carcinoma A431 cells, which have high expression of EGFR; assay: EGFR cell proliferation inhibition assay (SRB, 72 hours); assay type: cell-based; details: read-out: IC50 (EGFR/A431)
Protocol: The activity is represented by the IC50 value. The general procedures of the assay were as follows: the cancer cells A431 highly expressing EGFR were chosen and seeded in a 96-well cell culture plate at a suitable density (e.g., 5000 cells/mL medium). The cells were then incubated in a carbon dioxide incubator until they reached 85% confluence. Then, the cell culture medium was replaced by fresh medium containing the test compounds with serial dilutions (general 6 to 7 concentrations). The cells were put back in the incubator and cultured continuously for 72 hours. The activity of the test compounds for inhibiting the cell proliferation was determined by using a Sulforhodamine B (SRB) method. IC50 values were calculated by the rate of inhibition at various concentrations of the test compounds.

[7] = physiological saline, saline or isotonic, physiological saline, read-out: Solubility Value, Physiological saline
[8] = both sexes, Sprague-Dawley, plasma, iv, 25 mg/kg, vein (tail vein injection)
[9] = both sexes, Sprague-Dawley, plasma, iv, 25 mg/kg, vein (tail vein injection), read-out: AUC0-t
[10] = both sexes, Sprague-Dawley, plasma, iv, 25 mg/kg, vein (tail vein injection), read-out: MRT
[11] = vein (tail vein injection), 25 mg/kg
[12] = both sexes, Sprague-Dawley, plasma, po, 25 mg/kg, gavage
[13] = both sexes, Sprague-Dawley, plasma, po, 25 mg/kg, gavage, read-out: AUC0-t
[14] = both sexes, Sprague-Dawley, plasma, po, 25 mg/kg, gavage, read-out: Cmax
[15] = both sexes, Sprague-Dawley, plasma, po, 25 mg/kg, gavage, read-out: MRT
[16] = vein (tail vein injection), 25 mg/kg, dimaleate
[17] = water, read-out: Solubility Value, Water
[18] = gavage, 25 mg/kg, dimethanesulfonate
[19] = vein (tail vein injection), 25 mg/kg, dimethanesulfonate
[20] = gavage, 25 mg/kg, trimethanesulphonate
[21] = vein (tail vein injection), 25 mg/kg, trimethanesulphonate

CCOc1cc2ncc(C#N)c(Nc3ccc(OCc4ccccn4)c(Cl)c3)c2cc1NC(=O)/C=C/[C@H]1CCCN1C.O=C(O)/C=C\C(=O)O [Example 1, (E)-N-[4-[[3-chloro-4-(2-pyridylmethoxy)phenyl]amino]-3-cyano-7-ethoxy-6-quinolyl]-3-[(2R)-1-methylpyrrolidin-2-yl]prop-2-enamide maleate]
solubility [1, 7]: 0.19 mg/mL | half-life [2, 8]: 4.92 ± 0.6 h | AUC(0-t) [2, 9]: 222 ± 77 µg·h/mL | MRT [2, 10]: 5.5 ± 0.99 h | AUC(0-t) ([2]; gavage, 25 mg/kg, maleate): 104.58 ± 56.54 µg·h/mL | Cmax ([2]; gavage, 25 mg/kg, maleate): 8990 ± 4870 ng/mL | MRT ([2]; gavage, 25 mg/kg, maleate): 8.93 ± 1.39 h | t1/2 ([2]; gavage, 25 mg/kg, maleate): 4.4 ± 1.3 h | F (%) ([2]; oral absolute bioavailability, 25 mg/kg (calculated by the base part), maleate): 47.1% | IC50 [3]: 0.053 µM | Solubility Value, 0.1M Hydrochloric acid ([4]; maleate): 23.33 mg/mL | Solubility Value, Water ([4]; water, maleate): 12.49 mg/mL | IC50 ([5]; read-out: IC50 (HER-2/SK-BR-3), maleate): 0.064 µM

CCOc1cc2ncc(C#N)c(Nc3ccc(OCc4ccccn4)c(Cl)c3)c2cc1NC(=O)/C=C/[C@H]1CCCN1C [Example 1f, (E)-N-[4-[[3-chloro-4-(2-pyridylmethoxy)phenyl]amino]-3-cyano-7-ethoxy-6-quinolyl]-3-[(2R)-1-methylpyrrolidin-2-yl]prop-2-enamide]
Solubility Value, Water ([1]; water): 0.008 mg/mL (≈ 13.7 µM) | AUC(0-t) ([2]; gavage, 25 mg/kg): 52.81 ± 23.59 µg·h/mL | F (%) ([2]; oral absolute bioavailability, 25 mg/kg (calculated by the base part)): 42.2% | AUC(0-t) [2, 11]: 125.4 ± 38.95 µg·h/mL | MRT [2, 11]: 4.22 ± 0.71 h | t1/2 [2, 11]: 5.25 ± 2.01 h | IC50 [3]: 0.065 µM | Solubility Value, 0.1M Hydrochloric acid [4]: 1.43 mg/mL (≈ 2450 µM) | solubility in conventional solvents (in words) ([4]; conventional solvents): poorly soluble | Solubility Value, Physiological saline [4]: 0.0026 mg/mL | IC50 ([5]; Homo sapiens, SK-BR-3, 96 h, read-out: IC50 (HER-2/SK-BR-3)): 0.059 µM

CCOc1cc2ncc(C#N)c(Nc3ccc(OCc4ccccn4)c(Cl)c3)c2cc1NC(=O)/C=C/[C@H]1CCCN1C.O=C(O)/C=C\C(=O)O [Example 2, (E)-N-[4-[[3-chloro-4-(2-pyridylmethoxy)phenyl]amino]-3-cyano-7-ethoxy-6-quinolyl]-3-[(2R)-1-methylpyrrolidin-2-yl]prop-2-enamide dimaleate]
Solubility Value, Water ([1]; water, dimaleate): 1.52 mg/mL | CL/F [2, 12]: 4.83 mL/min/kg | half-life [2, 12]: 4.45 ± 1.63 h | AUC(0-t) [2, 13]: 116 ± 67.2 µg·h/mL | Cmax [2, 14]: 10200 ± 4410 ng/mL | MRT [2, 15]: 8.03 ± 0.99 h | Vd/F [2, 12]: 1.84 ± 1.19 L/kg | bioavailability ([2]; both sexes, Sprague-Dawley, plasma, po, 25 mg/kg, oral absolute bioavailability, 25 mg/kg (calculated by the base part)): 48.3% | MRT [2, 16]: 2.96 ± 0.47 h | t1/2 [2, 16]: 3.74 ± 1.20 h | IC50 [3]: 0.028 µM | IC50 ([6]; Homo sapiens, A-431, 72 h): 0.031 µM | Solubility Value, 0.1M Hydrochloric acid ([4]; dimaleate): 54.88 mg/mL | Solubility Value, Physiological saline ([4]; dimaleate): 0.36 mg/mL

CCOc1cc2ncc(C#N)c(Nc3ccc(OCc4ccccn4)c(Cl)c3)c2cc1NC(=O)/C=C/[C@H]1CCCN1C.O=C(O)C[C@H](O)C(=O)O [Example 3, (E)-N-[4-[[3-chloro-4-(2-pyridylmethoxy)phenyl]amino]-3-cyano-7-ethoxy-6-quinolyl]-3-[(2R)-1-methylpyrrolidin-2-yl]prop-2-enamide L-malate]
solubility [1, 7]: 0.08 mg/mL | solubility [1, 17]: 17.2 mg/mL | IC50 [3]: 0.071 µM | IC50 ([6]; A431 cells, 72 hours, SRB, L-malate): 0.029 µM | solubility [4]: 12.7 mg/mL | IC50 ([5]; L-malate, read-out: IC50 (HER-2/SK-BR-3)): 0.056 µM

CCOc1cc2ncc(C#N)c(Nc3ccc(OCc4ccccn4)c(Cl)c3)c2cc1NC(=O)/C=C/[C@H]1CCCN1C.CS(=O)(=O)O [Example 4, (E)-N-[4-[[3-chloro-4-(2-pyridylmethoxy)phenyl]amino]-3-cyano-7-ethoxy-6-quinolyl]-3-[(2R)-1-methylpyrrolidin-2-yl]prop-2-enamide methanesulfonate]
half-life [2, 8]: 3.77 ± 0.22 h | AUC(0-t) [2, 9]: 146 ± 40.4 µg·h/mL | MRT [2, 10]: 5.46 ± 0.48 h | CL/F [2, 12]: 5.33 mL/min/kg | half-life [2, 12]: 3.67 ± 0.83 h | AUC(0-t) [2, 13]: 92.3 ± 37 µg·h/mL | Cmax [2, 14]: 6920 ± 1820 ng/mL | MRT [2, 15]: 8.4 ± 0.65 h | Vd/F [2, 12]: 1.6 ± 0.54 L/kg | F (%) ([2]; oral absolute bioavailability, 25 mg/kg (calculated by the base part), methanesulfonate): 63.2%

CCOc1cc2ncc(C#N)c(Nc3ccc(OCc4ccccn4)c(Cl)c3)c2cc1NC(=O)/C=C/[C@H]1CCCN1C.CS(=O)(=O)O [Example 5, (E)-N-[4-[[3-chloro-4-(2-pyridylmethoxy)phenyl]amino]-3-cyano-7-ethoxy-6-quinolyl]-3-[(2R)-1-methylpyrrolidin-2-yl]prop-2-enamide dimethanesulfonate]
AUC(0-t) [2, 18]: 81.53 ± 40.46 µg·h/mL | Cmax [2, 18]: 7880 ± 2510 ng/mL | MRT [2, 18]: 7.95 ± 0.61 h | t1/2 [2, 18]: 3.46 ± 0.56 h | F (%) ([2]; oral absolute bioavailability, 25 mg/kg (calculated by the base part), dimethanesulfonate): 72.1% | AUC(0-t) [2, 19]: 112.84 ± 62.1 µg·h/mL | MRT [2, 19]: 4.2 ± 0.99 h | t1/2 [2, 19]: 3.12 ± 0.37 h

CCOc1cc2ncc(C#N)c(Nc3ccc(OCc4ccccn4)c(Cl)c3)c2cc1NC(=O)/C=C/[C@H]1CCCN1C.CS(=O)(=O)O [Example 6, (E)-N-[4-[[3-chloro-4-(2-pyridylmethoxy)phenyl]amino]-3-cyano-7-ethoxy-6-quinolyl]-3-[(2R)-1-methylpyrrolidin-2-yl]prop-2-enamide trimethanesulphonate]
AUC(0-t) [2, 20]: 81.72 ± 22.16 µg·h/mL | Cmax [2, 20]: 6270 ± 1580 ng/mL | MRT [2, 20]: 8.59 ± 0.22 h | t1/2 [2, 20]: 4.15 ± 0.09 h | F (%) ([2]; oral absolute bioavailability, 25 mg/kg (calculated by the base part), trimethanesulphonate): 50.5% | AUC(0-t) [2, 21]: 162.28 ± 55.65 µg·h/mL | MRT [2, 21]: 4.94 ± 0.58 h | t1/2 [2, 21]: 5.27 ± 0.29 h

CCOc1cc2ncc(C#N)c(Nc3ccc(OCc4ccccn4)c(Cl)c3)c2cc1NC(=O)/C=C/[C@H]1CCCN1C.O=C(O)CCC(=O)O [Example 8, (E)-N-[4-[[3-chloro-4-(2-pyridylmethoxy)phenyl]amino]-3-cyano-7-ethoxy-6-quinolyl]-3-[(2R)-1-methylpyrrolidin-2-yl]prop-2-enamide succinate]
solubility [1, 7]: 3.32 mg/mL | solubility [1, 17]: 22.4 mg/mL | IC50 [3]: 0.053 µM | IC50 ([6]; A431 cells, 72 hours, SRB, succinate): 0.015 µM | solubility [4]: 32.4 mg/mL | IC50 ([5]; succinate, read-out: IC50 (HER-2/SK-BR-3)): 0.078 µM
